According to US20060251714A1, “Pharmaceutical formulations of amyloid inhibiting compounds” (priority 2005, published 2006):

How the values were obtained:
[1] = Hygroscopicity of the drug substance; format: physicochemical
Experimental: Furthermore, the non-hygroscopic nature of the acid form makes it desirable as active pharmaceutical ingredient. To further protect against any possible gastrointestinal intolerance that could result from the acid form, the tablets are enteric-coated and a modified-release agent is added to control any rapid release of the drug in the stomach and the intestine, respectively.

[2] = Example 9 Part II: food effect, single oral 100 mg 3-APS in elderly subjects, plasma pharmacokinetics; format: in vivo; conditions: both sexes, human, single oral 100 mg (Table 5 tablet), elderly male and female subjects; for AUC(0-inf) / Cmax / AUC(0-t): po, 100 mg; for AUC(0-inf): mean, only subjects with estimable elimination rate constant; for Cmax / AUC(0-t): n = 8, mean; for AUC(0-t): read-out: AUC0-Tlast
Experimental: (§1) In the following examples and elsewhere herein, terms are as defined below. The pharmacokinetic parameters were derived by non-compartmental analysis using WinNonlin® (Pharsight Corporation, Mountain View, Calif.) or SAS® for Windows® (SAS Institute Inc., Cary, N.C.).
Following single oral dosing of 100 mg 3-APS (modified-release coated formulation modified-release enteric-coated tablet as described in Table 5 above) to elderly (55 years or older) male and female subjects under fasted and fed (high fat) conditions, maximum plasma concentrations of 3-APS are attained at 5 and 10.5 h post-dose under fasted and fed conditions, respectively (Table 12A below and FIG. 5 showing the Mean Plasma Concentration-Time Profiles of 3-APS under Fasted and Fed Conditions following Single Oral Administration of 100 mg to Elderly Male and Female Subjects).

[3] = Example 12: Phase II pilot study in CAA patients with lobar cerebral hemorrhage, plasma pharmacokinetics; format: in vivo, human; conditions: for AUC(0-inf) / Cmax / AUC(0-t): human, plasma, oral; for AUC(0-inf): mean, only patients with estimable elimination rate constant
Text: as §1
AUCss—the area under the plasma concentrations versus time curve during a dosing interval at steady state.
A Phase II pilot study of the safety, tolerability and pharmacokinetics of 3-APS (formulation of Table 5 above) in patients with lobar cerebral hemorrhage related to Cerebral Amyloid Angiopathy (CAA). For doses at multiples of 50 mg, multiple 50 mg tables are administered. A multicenter, randomized, double-blind, and parallel designed study is conducted in the United States with 3-APS in patients who survived a lobar cerebral hemorrhage related to cerebral amyloid angiopathy (CAA). The main objective of this study is to assess the safety and tolerability of 3-APS and to characterize its pharmacokinetics in CAA patients.
A total of 24 patients who have had lobar cerebral hemorrhage are randomized to receive in a 1:1:1 ratio 3-APS 50, 100 or 150 mg BID for 12 weeks. A lumbar puncture is performed on an optional basis at Weeks 0 and 12 to assess the pharmacological effect of 3-APS on Aβ40, Aβ42 and tau concentrations in cerebrospinal fluid (CSF) and to measure the drug concentration in the CSF. Rating instruments (NIHSS, Barthel Index, ADAS-cog and EXIT25) are administered at Weeks 0 and 12 to evaluate the neurological and cognitive functions as well as the daily functioning.
For pharmacokinetic investigations, blood samples are collected from each patient prior to dosing and at specified time points through 12 h post-dose after the first dose (Week 0) and the last dose (Week 12). Blood samples are also collected prior to the first dose of the day during Week 2, 4 and 8 visits. CSF samples are obtained by lumbar puncture prior to dosing on Week 0 and approximately 5 hours post-dose on Week 12.

[4] = Example 8 Part I: multiple rising oral doses of NC-758 in healthy young male and elderly subjects, plasma pharmacokinetics; format: in vivo, human; conditions: fasted; for AUC∞: mean, only subjects with estimable elimination rate constant
Experimental: as §1
The pharmacokinetic profile of multiple rising oral doses of 3-APS free acid (NC-758 of Table 3 above) in healthy male young subjects (18-45 years) and healthy male and female elderly (≧55 years) subjects is assessed. For doses at multiples of 100 mg, multiple 100 mg tables are administered. […] Part I is a randomized, double-blind, placebo-controlled study to assess the pharmacokinetic profile of 2 multiple rising oral doses of NC-758 in healthy young (18-45 years) male subjects. […] In Part I, 3-APS is administered as a single dose on Days 1 and 12 and on Days 2-11, twice daily at 12 hour intervals. Blood samples are collected through 24 h after the first dose on Day 1, before each morning dose on Days 2 to 11, and through 48 h after the final dose on Day 12. For Part II, blood samples are collected through 36 h. Plasma concentrations of 3-APS are determined using a validated LC-MS/MS method.

[5] = Example 9 Part I: single oral doses of NC-758-1 in healthy elderly volunteers, plasma pharmacokinetics; format: in vivo, human; conditions: elderly male and female subjects, fasted; for AUC∞: mean, only subjects with estimable elimination rate constant
Text: as §1
Part I—The pharmacokinetic profile and the effect of food on single oral doses of 3-APS free acid (modified-release enteric-coated tablet as described in Table 5 above, hereinafter “NC-758-1”) in healthy male and female elderly (≧55 years) volunteers. For doses at multiples of 50 mg, multiple 50 mg tables are administered. The test is an open label, three-period crossover study to assess the pharmacokinetic profile of 3 single oral doses of NC-758-1 in healthy elderly (≧55 years) male and female subjects. The blood samples are collected during 24 h following dosing. Plasma concentrations of 3-APS are determined using a validated LC-MS/MS method.

[6] = NC-758 100 mg BID, Day 12 (repeated), young (18-45 years) male subjects, n = 6, mean
[7] = NC-758 200 mg BID, Day 1, elderly (≧55 years) male and female subjects, n = 6, mean
[8] = NC-758 200 mg BID, Day 1, young (18-45 years) male subjects, n = 6, mean
[9] = NC-758 200 mg BID, Day 12 (repeated), elderly (≧55 years) male and female subjects, n = 6, mean
[10] = NC-758 200 mg BID, Day 12 (repeated), young (18-45 years) male subjects, n = 5, mean
[11] = single oral 50 mg NC-758-1 (Table 5 tablet), n = 9, mean
[12] = single oral 100 mg NC-758-1 (Table 5 tablet), n = 9, mean
[13] = single oral 150 mg NC-758-1 (Table 5 tablet), n = 8, mean

For `NCCCS(=O)(=O)O` [3-APS, 3-amino-1-propanesulfonic acid], the hygroscopic nature [1] was “non-hygroscopic”, the AUC(0-inf) ([2]; Fasting Arm) was 3290 ng·h/mL and the Cmax ([2]; Fasting Arm) was 931 ng/mL. For the same molecule, the AUC(0-t) ([2]; Fasting Arm) was 3220 ng·h/mL, the AUC(0-inf) ([2]; Fed Arm (high fat)) was 2830 ng·h/mL and the Cmax ([2]; Fed Arm (high fat)) was 671 ng/mL. It also gave an AUC(0-t) ([2]; Fed Arm (high fat)) of 3400 ng·h/mL, a Tmax ([2]; Fed Arm (high fat), n = 8, median) of 10.5 h and a Tmax ([3]; 50 mg BID (Table 5 tablet), Week 0 (single dose), n = 8, median) of 4.5 h. It also gave a Tmax ([3]; 50 mg BID (Table 5 tablet), Week 12 (repeated), n = 8, median) of 4.4 h, a Tmax ([3]; 100 mg BID (Table 5 tablet), Week 12 (repeated), n = 6, median) of 5.15 h and a Tmax ([3]; 150 mg BID (Table 5 tablet), Week 12 (repeated), n = 3, median) of 5.4 h. It also gave an AUC(0-inf) ([3]; 50 mg BID (Table 5 tablet), Week 0 (single dose)) of 1640 ng·h/mL, a Cmax ([3]; 50 mg, 50 mg BID (Table 5 tablet), Week 0 (single dose), n = 8, mean) of 346 ng/mL and an AUC(0-t) ([3]; 50 mg, 50 mg BID (Table 5 tablet), Week 0 (single dose), n = 8, mean, read-out: AUC0-t) of 1280 ng·h/mL. The Cmax ([3]; 50 mg, 50 mg BID (Table 5 tablet), Week 12 (repeated), n = 8, mean) was 171 ng/mL, the AUC(0-t) ([3]; 50 mg, 50 mg BID (Table 5 tablet), Week 12 (repeated), n = 8, mean, read-out: AUC0-t (AUCss for Week 12)) was 947 ng·h/mL and the AUC(0-inf) ([3]; 100 mg BID (Table 5 tablet), Week 0 (single dose)) was 2780 ng·h/mL. It also gave a Cmax ([3]; 100 mg, 100 mg BID (Table 5 tablet), Week 0 (single dose), n = 7, mean) of 552 ng/mL, an AUC(0-t) ([3]; 100 mg, 100 mg BID (Table 5 tablet), Week 0 (single dose), n = 7, mean, read-out: AUC0-t) of 2630 ng·h/mL and a Cmax ([3]; 100 mg, 100 mg BID (Table 5 tablet), Week 12 (repeated), n = 6, mean) of 806 ng/mL. For the same molecule, the AUC(0-t) ([3]; 100 mg, 100 mg BID (Table 5 tablet), Week 12 (repeated), n = 6, mean, read-out: AUC0-t (AUCss for Week 12)) was 3700 ng·h/mL, the AUC(0-inf) ([3]; 150 mg BID (Table 5 tablet), Week 0 (single dose)) was 3690 ng·h/mL and the Cmax ([3]; 150 mg, 150 mg BID (Table 5 tablet), Week 0 (single dose), n = 5, mean) was 857 ng/mL. It also gave an AUC(0-t) ([3]; 150 mg, 150 mg BID (Table 5 tablet), Week 0 (single dose), n = 5, mean, read-out: AUC0-t) of 3900 ng·h/mL, a Cmax ([3]; 150 mg, 150 mg BID (Table 5 tablet), Week 12 (repeated), n = 3, mean) of 1030 ng/mL and an AUC(0-t) ([3]; 150 mg, 150 mg BID (Table 5 tablet), Week 12 (repeated), n = 3, mean, read-out: AUC0-t (AUCss for Week 12)) of 6750 ng·h/mL. For the same molecule, the “AUC∞” value ([4]; NC-758 100 mg BID, Day 1, young (18-45 years) male subjects) was 1017 ng·h/mL, the Cmax ([4]; NC-758 100 mg BID, Day 1, young (18-45 years) male subjects, n = 6, mean) was 282 ng/mL and the AUC0-12h [4, 6] was 1434 ng·h/mL. For the same molecule, the Cmax [4, 6] was 256 ng/mL, the “AUC∞” value ([4]; NC-758 200 mg BID, Day 1, elderly (≧55 years) male and female subjects) was 5503 ng·h/mL and the AUC0-12h [4, 7] was 5020 ng·h/mL. For the same molecule, the Cmax [4, 7] was 897 ng/mL, the “AUC∞” value ([4]; NC-758 200 mg BID, Day 1, young (18-45 years) male subjects) was 3206 ng·h/mL and the AUC0-12h [4, 8] was 2865 ng·h/mL. For the same molecule, the Cmax [4, 8] was 517 ng/mL, the AUC0-12h [4, 9] was 6287 ng·h/mL and the Cmax [4, 9] was 880 ng/mL. For the same molecule, the AUC0-12h [4, 10] was 4152 ng·h/mL, the Cmax [4, 10] was 581 ng/mL and the “AUC∞” value ([5]; single oral 50 mg NC-758-1 (Table 5 tablet)) was 1566 ng·h/mL. The AUC(0-t) [5, 11] was 1537 ng·h/mL, the Cmax [5, 11] was 469 ng/mL and the “AUC∞” value ([5]; single oral 100 mg NC-758-1 (Table 5 tablet)) was 2871 ng·h/mL. For the same molecule, the AUC(0-t) [5, 12] was 3128 ng·h/mL, the Cmax [5, 12] was 745 ng/mL and the “AUC∞” value ([5]; single oral 150 mg NC-758-1 (Table 5 tablet)) was 4497 ng·h/mL. The AUC(0-t) [5, 13] was 5303 ng·h/mL and the Cmax [5, 13] was 1029 ng/mL.
